The values that follow come from patent US12110286B2, “Benzimidazolone derived inhibitors of BCL6” (Cancer Research Technology Limited, priority 2017, dated 2024).

In the assay the target is Trx-6×His-BCL6 (human BCL6 BTB domain covering amino-acid sequence 5-129) (Homo sapiens (Human), UniProt P41182). In words: HTRF in vitro assay (BCL6 / BCOR-AF633 peptide). Type of assay: binding. Here is the method: The % inhibition at each concentration was calculated by normalising FRET ratio to the appropriate high (DMSO with all reagents) and low (DMSO without BCL6) controls.
Background: Time-resolved FRET reads energy transfer from a long-lived donor to a nearby acceptor.

[1] abbreviates: initially generated data, 10 nM Trx-6×His-BCL6, 300 nM BCOR-AF633 peptide, 1 nM anti-6×His-Terbium cryptate.
[2] abbreviates: further generated data, 1 nM Trx-6×His-BCL6, 300 nM BCOR-AF633 peptide, 0.5 nM anti-6×His-Terbium cryptate.

In the case of `COC(=O)C(C)CCn1c(=O)n(C)c2ccc(Nc3cc(C(=O)N(C)C)nc(Cl)c3C#N)cc21` (centres unmarked) [Example 7c, Methyl 4-[6-[[2-chloro-3-cyano-6-(dimethylcarbamoyl)-4-pyridyl]amino]-3-methyl-2-oxo-benzimidazol-1-yl]-2-methyl-butanoate], under setting [1], the “HTRF pIC50” value is on record as 5.57.

On to `CN(C)CCNC(=O)c1cc(Nc2ccc3c(c2)n(C)c(=O)n3C)c(C#N)c(Cl)n1` [Example 7d, 6-Chloro-5-cyano-N-[2-(dimethylamino)ethyl]-4-[(1,3-dimethyl-2-oxo-benzimidazol-5-yl)amino]pyridine-2-carboxamide:formic acid (1:1)], for which the “HTRF pIC50” value under setting [1] came to 5.50.

As to `CCOC(=O)c1cc(Nc2ccc3c(c2)n(CCC(C)C(=O)OC)c(=O)n3C)n2nccc2n1` (centres unmarked) [Example 8, Ethyl 7-[[3-(4-methoxy-3-methyl-4-oxo-butyl)-1-methyl-2-oxo-benzimidazol-5-yl]amino]pyrazolo[1,5-a]pyrimidine-5-carboxylate], the “HTRF pIC50” value was 6.01 under setting [2] and 5.83 under setting [1]. For `COC(=O)C(O)CCn1c(=O)n(C)c2ccc(Nc3ccnc(Cl)c3C#N)cc21` (centres unmarked) [Example 9, Methyl 4-[6-[(2-chloro-3-cyano-4-pyridyl)amino]-3-methyl-2-oxo-benzimidazol-1-yl]-2-hydroxy-butanoate], in that order: 5.97 and 5.83. Consider `Cn1c(=O)n(CC(O)C(C)(C)O)c2cc(Nc3ccnc(Cl)c3C#N)ccc21` (centres unmarked) [Example 10a, 2-Chloro-4-[[3-(2,3-dihydroxy-3-methyl-butyl)-1-methyl-2-oxo-benzimidazol-5-yl]amino]pyridine-3-carbonitrile], for which the “HTRF pIC50” value was 5.93 under setting [2] and 5.81 under setting [1].

Consider `COC(=O)C(CCn1c(=O)n(C)c2ccc(Nc3ccnc(Cl)c3C#N)cc21)OC` (centres unmarked) [Example 10b], for which the “HTRF pIC50” value amounted to 5.57 under setting [2] and 5.71 under setting [1]. Take `CCOC(CCn1c(=O)n(C)c2ccc(Nc3ccnc(Cl)c3C#N)cc21)C(=O)OC` (centres unmarked) [Example 10c]: the “HTRF pIC50” value by setting is: under setting [2], 5.69; under setting [1], 5.65. Taken in the same sequence, the figures for `COC(=O)CCCn1c(=O)n(C)c2ccc(Nc3ccnc(Cl)c3C#N)cc21` [Example 10d] were 5.29 and 5.55.

Consider `COC(=O)C(CCn1c(=O)n(C)c2ccc(Nc3ccnc(Cl)c3C#N)cc21)OCC1CC1` (centres unmarked) [Example 10e], for which the “HTRF pIC50” value runs as follows: under setting [2], 5.38; under setting [1], 5.52. For `Cn1c(=O)n(CC(O)Cn2cccn2)c2cc(Nc3ccnc(Cl)c3C#N)ccc21` (centres unmarked) [Example 10f], in that order: 5.48 and 5.49. For `COC(=O)C1CCCC1Cn1c(=O)n(C)c2ccc(Nc3ccnc(Cl)c3C#N)cc21` (centres unmarked) [Example 11, Methyl 2-[[6-[(2-chloro-3-cyano-4-pyridyl)amino]-3-methyl-2-oxo-benzimidazol-1-yl]methyl]cyclopentanecarboxylate], in that order: 5.72 and 5.71. Turning to `COC(=O)[C@H](N)CCn1c(=O)n(C)c2ccc(Nc3ccnc(Cl)c3C#N)cc21` [Example 12, Methyl (2R)-2-amino-4-[6-[(2-chloro-3-cyano-4-pyridyl)amino]-3-methyl-2-oxo-benzimidazol-1-yl]butanoate], the “HTRF pIC50” value by setting is: under setting [2], 5.68; under setting [1], 5.79.

`CC(=O)NC(C)CCn1c(=O)n(C)c2ccc(Nc3ccnc(Cl)c3C#N)cc21` (centres unmarked) [Example 13, N-[3-[6-[(2-Chloro-3-cyano-4-pyridyl)amino]-3-methyl-2-oxo-benzimidazol-1-yl]-1-methyl-propyl]acetamide]: under setting [1], the “HTRF pIC50” value was 5.75. In the case of `CCNC(=O)c1cc(Nc2ccc3c(c2)n(CCC(C)(C)O)c(=O)n3C)c(Cl)cn1` [Example 14, 5-Chloro-N-ethyl-4-[[3-(3-hydroxy-3-methyl-butyl)-1-methyl-2-oxo-benzimidazol-5-yl]amino]pyridine-2-carboxamide], the “HTRF pIC50” value amounted to 6.29 under setting [2] and 6.05 under setting [1]. On to `CCOC(=O)c1cnn(-c2ncc(Cl)c(Nc3ccc4c(c3)n(CCC(C)(C)O)c(=O)n4C)n2)c1` [Example 15b], for which, under setting [2], the “HTRF pIC50” value worked out at 5.96. Take `Cc1cc(C)n(-c2ncc(Cl)c(Nc3ccc4c(c3)n(CCC(C)(O)CCO)c(=O)n4C)n2)n1` (centres unmarked) [Example 15e]: the “HTRF pIC50” value under setting [2] was 6.02. The same measure, in the same setting: the value for `CCC(C)(O)CCn1c(=O)n(C)c2ccc(Nc3nc(-n4nc(C)cc4C)ncc3Cl)cc21` (centres unmarked) [Example 15f] was 6.00.

On to `CN(C)c1ncc(Cl)c(Nc2ccc3c(c2)n(CCC(C)(C)O)c(=O)n3C)n1` [Example 15g], for which the “HTRF pIC50” value under setting [2] is reported as 5.89. Consider `Cc1cc(C)n(-c2ncc(Cl)c(Nc3ccc4c(c3)[nH]c(=O)n4C)n2)n1` [Example 15h], for which, under setting [2], the “HTRF pIC50” value is 5.86.

Consider `COCC(C)(O)CCn1c(=O)n(C)c2ccc(Nc3nc(-n4nc(C)cc4C)ncc3Cl)cc21` (centres unmarked) [Example 15j], for which the “HTRF pIC50” value under setting [2] came out at 5.76. As for `CN(C)C(=O)C1CCN(c2ncc(Cl)c(Nc3ccc4c(c3)n(CCC(C)(O)CCO)c(=O)n4C)n2)CC1` (centres unmarked) [Example 15k], the “HTRF pIC50” value under setting [2] came to 6.27. For the compound `Cn1c(=O)n(CCC(C)(C)O)c2cc(Nc3nc(-n4cccn4)ncc3Cl)ccc21` [Example 15m], under setting [2], the “HTRF pIC50” value was determined as 6.08.

As for `Cc1cc(C)n(-c2cc(Nc3ccc4c(c3)n(CCC(C)(C)O)c(=O)n4C)c(C#N)cn2)n1` [Example 15o], the “HTRF pIC50” value under setting [2] turned out to be 5.88. On the same count and under the same terms, the value for `Cc1cc(C)n(-c2nc(C)c(Cl)c(Nc3ccc4c(c3)n(CCC(C)(C)O)c(=O)n4C)n2)n1` [Example 15p] was 5.82. The same measure, in the same setting: the value for `Cc1cc(C)n(-c2ncc(Br)c(Nc3ccc4c(c3)n(CCC(C)(C)O)c(=O)n4C)n2)n1` [Example 15q] was 6.09.

Consider `Cc1ccn(-c2ncc(Cl)c(Nc3ccc4c(c3)n(CCC(C)(C)O)c(=O)n4C)n2)n1` [Example 16a, 5-((5-chloro-2-(3-methyl-1H-pyrazol-1-yl)pyrimidin-4-yl)amino)-3-(3-hydroxy-3-methylbutyl)-1-methyl-1,3-dihydro-2H-benzo[d]imidazol-2-one], for which, under setting [2], the “HTRF pIC50” value is given as 6.38.

For `Cc1ccnn1-c1ncc(Cl)c(Nc2ccc3c(c2)n(CCC(C)(C)O)c(=O)n3C)n1` [Example 16b, 5-((5-chloro-2-(5-methyl-1H-pyrazol-1-yl)pyrimidin-4-yl)amino)-3-(3-hydroxy-3-methylbutyl)-1-methyl-1,3-dihydro-2H-benzo[d]imidazol-2-one], the “HTRF pIC50” value under setting [2] is recorded as 6.31.

`Cn1c(=O)n(CCC2(O)CCC2)c2cc(Nc3ccnc(Cl)c3C#N)ccc21` [Example 18a, 2-chloro-4-((3-(2-(1-hydroxycyclobutyl)ethyl)-1-methyl-2-oxo-2,3-dihydro-1H-benzo[d]imidazol-5-yl)amino)nicotinonitrile]: the “HTRF pIC50” value under setting [2] amounted to 5.90. Turning to `Cn1c(=O)n(CCS(C)(=O)=O)c2cc(Nc3ccnc(Cl)c3C#N)ccc21` [Example 18b, 2-chloro-4-((1-methyl-3-(2-(methylsulfonyl)ethyl)-2-oxo-2,3-dihydro-1H-benzo[d]imidazol-5-yl)amino)nicotinonitrile], under setting [2], the “HTRF pIC50” value is 5.31. Take `CCC(=O)CCn1c(=O)n(C)c2ccc(Nc3ccnc(Cl)c3C#N)cc21` [Example 19a, 2-chloro-4-((1-methyl-2-oxo-3-(3-oxopentyl)-2,3-dihydro-1H-benzo[d]imidazol-5-yl)amino)nicotinonitrile]: the “HTRF pIC50” value under setting [2] came out at 5.83. Consider `CC1OCCC1Cn1c(=O)n(C)c2ccc(Nc3ccnc(Cl)c3C#N)cc21` (centres unmarked) [Example 19b], for which, under setting [2], the “HTRF pIC50” value was found to be 5.55. On to `Cn1c(=O)n(CCC2(C)OCCO2)c2cc(Nc3ccnc(Cl)c3C#N)ccc21` [Example 19c], for which the “HTRF pIC50” value under setting [2] is reported as 5.45. As for `Cn1c(=O)n(CC2CCN2C(=O)OC(C)(C)C)c2cc(Nc3ccnc(Cl)c3C#N)ccc21` (centres unmarked) [Example 19d], the “HTRF pIC50” value under setting [2] is 5.44. On the same count and under the same terms, for `CN1CC(Cn2c(=O)n(C)c3ccc(Nc4nc(N5CC(C)(C)OC(C)(C)C5)ncc4Cl)cc32)(C(C)(C)O)OC1=O` (centres unmarked) [Example 20b] the value was 6.01; for `Cn1c(=O)n(CCC(C)(C)O)c2cc(Nc3nc(N4CCCCC4)ncc3Cl)ccc21` [Example 20d], 5.92; for `CC(C)Nc1ncc(Cl)c(Nc2ccc3c(c2)n(CCC(C)(C)O)c(=O)n3C)n1` [Example 20f], 5.99. In the case of `CCN(C)c1ncc(Cl)c(Nc2ccc3c(c2)n(CCC(C)(C)O)c(=O)n3C)n1` [Example 20i], the “HTRF pIC50” value under setting [2] stood at 6.17. Consider `C[C@@H]1CN(c2ncc(Cl)c(Nc3ccc4c(c3)n(CCC(C)(C)O)c(=O)n4C)n2)C[C@H](C)O1` [Example 20j], for which the “HTRF pIC50” value under setting [2] is 6.80. Still for that read-out and setting: the value for `Cn1c(=O)n(CCC(C)(C)O)c2cc(Nc3nc(N4CC(C(F)(F)F)OC(C)(C)C4)ncc3Cl)ccc21` (centres unmarked) [Example 20k] was 6.11; that for `CCC1(Cn2c(=O)n(C)c3ccc(Nc4nc(N5C[C@@H](C)O[C@@H](C)C5)ncc4Cl)cc32)CN(C)C(=O)O1` (some centres unmarked) [Example 20l] was 6.39.

With `CCC1(Cn2c(=O)n(C)c3ccc(Nc4nc(-n5ccc(C(F)(F)F)n5)ncc4Cl)cc32)CN(C)C(=O)O1` (centres unmarked) [Example 20m], the “HTRF pIC50” value under setting [2] is 5.97.

In the case of `CCC1(Cn2c(=O)n(C)c3ccc(Nc4nc(N5C[C@@H](C)O[C@@H](C)C5)ncc4Cl)cc32)CNC(=O)O1` (some centres unmarked) [Example 20n], the “HTRF pIC50” value under setting [2] is on record as 6.42.

`CCC1(Cn2c(=O)n(C)c3ccc(Nc4nc(-n5ccc(C(F)(F)F)n5)ncc4Cl)cc32)CNC(=O)O1` (centres unmarked) [Example 20o]: the “HTRF pIC50” value under setting [2] was 6.22. Same read-out and setting: the value for `C[C@@H]1CN(c2ncc(Cl)c(Nc3cc4c(cc3F)n(C)c(=O)n4CCC(C)(C)O)n2)C[C@H](C)O1` [Example 20p] was 6.44; that for `C[C@@H]1C[C@H](C)CN(c2ncc(Cl)c(Nc3cc4c(cc3F)n(C)c(=O)n4CCC(C)(C)O)n2)C1.O=CO` [Example 20q] was 5.87.
